Biological target: T1, hPARG (Homo sapiens, UniProt Q86W56)
T1 construct: made in house; host or cells: E. coli
Assay: PARG enzymatic activity assay (HTRF)
Assay type: biochemical
Details: C-terminal His6-tag hPARG 65 pM, biotinylated-NAD ribosylated PARP1 substrate 8 nM
Summary of the method: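 His6-tagged hPARG from E. coli (65 pM final) preincubated 60 min RT with compound (10-point 4-fold dilution), then 8 nM biotinylated NAD-ribosylated PARP1 added for 10 min RT in Tris pH 7.4 buffer with EDTA, EGTA, DTT, KCl. HTRF detection (Eu-streptavidin/anti-His XL665, 620/665 nm); IC50 from 4-parameter fit against DMSO and no-enzyme controls.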

T1 sequence (Q86W56 whole entry): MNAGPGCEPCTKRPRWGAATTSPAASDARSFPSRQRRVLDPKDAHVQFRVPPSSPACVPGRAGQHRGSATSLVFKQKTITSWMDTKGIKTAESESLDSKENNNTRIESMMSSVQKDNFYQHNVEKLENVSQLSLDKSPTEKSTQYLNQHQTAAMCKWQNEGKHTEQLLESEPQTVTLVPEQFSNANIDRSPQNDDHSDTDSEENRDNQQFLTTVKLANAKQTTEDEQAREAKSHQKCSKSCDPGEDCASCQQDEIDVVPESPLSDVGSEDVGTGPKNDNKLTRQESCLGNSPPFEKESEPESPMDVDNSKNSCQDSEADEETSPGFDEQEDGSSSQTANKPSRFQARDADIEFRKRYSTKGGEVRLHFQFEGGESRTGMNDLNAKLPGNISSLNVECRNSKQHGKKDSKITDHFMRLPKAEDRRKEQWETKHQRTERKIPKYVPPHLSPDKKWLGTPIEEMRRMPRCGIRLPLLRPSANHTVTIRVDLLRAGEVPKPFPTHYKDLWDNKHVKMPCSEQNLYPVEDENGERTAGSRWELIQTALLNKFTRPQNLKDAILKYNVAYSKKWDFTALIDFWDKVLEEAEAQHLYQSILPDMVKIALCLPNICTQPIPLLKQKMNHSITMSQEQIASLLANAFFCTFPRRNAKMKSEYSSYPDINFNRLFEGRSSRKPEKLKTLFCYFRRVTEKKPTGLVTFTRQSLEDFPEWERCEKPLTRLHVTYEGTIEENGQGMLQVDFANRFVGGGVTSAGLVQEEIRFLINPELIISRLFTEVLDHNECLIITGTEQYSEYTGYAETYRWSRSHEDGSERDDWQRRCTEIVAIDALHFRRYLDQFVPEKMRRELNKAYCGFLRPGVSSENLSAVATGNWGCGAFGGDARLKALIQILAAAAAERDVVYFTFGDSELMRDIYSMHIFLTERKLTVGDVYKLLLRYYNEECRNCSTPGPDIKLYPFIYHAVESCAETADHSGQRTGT

Structure (SMILES)	IC50 [nM]
N#CC1(NS(=O)(=O)c2ccc3c4c(OCC5COCCN5)ncnc4n(-c4nnc(C(F)F)s4)c3c2)CC1 (stereo not drawn) [Example 92, N-(1-cyanocyclopropyl)-9-(5-(difluoromethyl)-1,3,4-thiadiazol-2-yl)-4-(morpholin-3-ylmethoxy)-9H-pyrimido[4,5-b]indole-7-sulfonamide]	100 to 1000
CCN[C@@H]1CCN(c2ncnc3c2c2ccc(S(=O)(=O)NC4(C#N)CC4)cc2n3-c2nnc(C(F)F)s2)C[C@@H]1F [Example 93, N-(1-Cyanocyclopropyl)-9-(5-(difluoromethyl)-1,3,4-thiadiazol-2-yl)-4-((3S,4R)-4-(ethylamino)-3-fluoropiperidin-1-yl)-9H-pyrimido[4,5-b]indole-7-sulfonamide]	≤ 100
C[C@H]1CN(c2ncnc3c2c2ccc(S(=O)(=O)NC4(C#N)CC4)cc2n3-c2nnc(C(F)F)s2)C[C@H](C)N1 [Example 94, N-(1-Cyanocyclopropyl)-9-(5-(difluoromethyl)-1,3,4-thiadiazol-2-yl)-4-((3S,5S)-3,5-dimethylpiperazin-1-yl)-9H-pyrimido[4,5-b]indole-7-sulfonamide]	≤ 100
